Measured values as given in patent US20060292243A1, “Arsenic compounds for the treatment of the arsenic-sensitive blast-cell related diseases” (priority 2005, published 2006).
Read-outs that look alike come from different tables or passages of the source.

Columns and labels:
[1] = test system: PBMCs (peripheral blood mononuclear cells); test: PI staining, cell death within all PBMCs by flowcytometry; format: cell-based
Description: Arsenic trioxide (Asadin®) induces differentiation and apoptosis of malignant cells in vitro and in vivo and has been used in the treatment of a variety of hematological malignancies, the main goal of this example is to try to identify the apoptotic effect of arsenic trioxide on various PBMCs (peripheral blood mononuclear cells), and the methodologies used in this invention include:
1. The isolation procedure using Ficoll Plaque for exploiting the different densities of RBCs and PBMCs to separate them.
2. The detection of apoptosis by PI staining through flowcytometry.
In the PI-based study, under different concentrations of arsenic trioxide (0, 0.5, 2.5, 5, or 10 μM), the percentages of cell death (within all PBMCs) in 24 hr and 48 hr were calculated respectively in Table 1.1.

[2] = test system: FCC1/NH strain of P. falciparum; test: Malaria inhibition test; format: cell-based
Experimental: FCC1/NH strain (from Hainan, P.R.C.) of P. falciparum was used. The strain of the parasite was cultured by culture media mainly composed of RPMI-1640(GBCO), HEPES (GBCO), NaHCO3, and AB type serum. In a given experiment, Petri dish cultures were diluted with culture medium containing an amount of noninfected type B human erythrocytes to obtain a culture with a final parasitemia of about 1%. The resulting culture was ready for addition to microtitration plates with 96 flat-bottom wells.
The final volume added to each of the 96-well microtitration plates was 200 μl, consisted of 20 μl of complete medium with or without the drug (arsenic trioxide) and 180 μl of the parasitized culture. The microtitration plates were incubated in 5% CO2 for an additional 48 hr, at 37 C. The suspensions were discarded and infection rate of RBC in each well was calculated by microscope examination after Giemsa staining. When drugs interfere, an inhibitory dose of 50% (IC50) and 90% (IC90) can be calculated. A series of experiments is shown below.
The malaria inhibition experiment was performed in 4 lanes for each arsenic trioxide dose, and the initial infectious rate is 1.8%. After 48 hours of incubation, 5000 RBCs in each well were checked by microscope.
Another malaria inhibition experiment was performed in 4 lanes for each arsenic trioxide dose, and the initial infectious rate is 1.5%. After 48 hours of incubation, 5000 RBCs in each well were checked by microscope.
The other malaria inhibition experiment was performed in 12 lanes for each arsenic trioxide dose, and the initial infectious rate is 1.1%. After 48 hours of incubation, 5000 RBCs in each well were checked by microscope.
The other malaria inhibition experiment was performed in 6 lanes for each arsenic trioxide dose, and the initial infectious rate is 1.1%. After 48 hours of incubation, 5000 RBCs in each well were checked by microscope.

[3] = 0.031 uM, exp. 5.2.2, initial infectious rate 1.5%, 4 lanes, 48 hours
[4] = 0.063 uM, exp. 5.2.2, initial infectious rate 1.5%, 4 lanes, 48 hours
[5] = 0.125 uM, exp. 5.2.2, initial infectious rate 1.5%, 4 lanes, 48 hours
[6] = 0.25 uM, exp. 5.2.1, initial infectious rate 1.8%, 4 lanes, 48 hours
[7] = 0.25 uM, exp. 5.2.2, initial infectious rate 1.5%, 4 lanes, 48 hours
[8] = 0.5 uM, exp. 5.2.1, initial infectious rate 1.8%, 4 lanes, 48 hours
[9] = 0.5 uM, exp. 5.2.2, initial infectious rate 1.5%, 4 lanes, 48 hours
[10] = 0.5 uM, exp. 5.2.3, initial infectious rate 1.1%, 12 lanes, 48 hours
[11] = 0.5 uM, exp. 5.2.4, initial infectious rate 1.1%, 6 lanes, 48 hours
[12] = 1.0 uM, exp. 5.2.1, initial infectious rate 1.8%, 4 lanes, 48 hours
[13] = 1.0 uM, exp. 5.2.2, initial infectious rate 1.5%, 4 lanes, 48 hours
[14] = 1.0 uM, exp. 5.2.3, initial infectious rate 1.1%, 12 lanes, 48 hours
[15] = 1.0 uM, exp. 5.2.4, initial infectious rate 1.1%, 6 lanes, 48 hours
[16] = 2.0 uM, exp. 5.2.1, initial infectious rate 1.8%, 4 lanes, 48 hours
[17] = 2.0 uM, exp. 5.2.2, initial infectious rate 1.5%, 4 lanes, 48 hours
[18] = 2.0 uM, exp. 5.2.3, initial infectious rate 1.1%, 12 lanes, 48 hours
[19] = 2.0 uM, exp. 5.2.4, initial infectious rate 1.1%, 6 lanes, 48 hours
[20] = 4.0 uM, exp. 5.2.1, initial infectious rate 1.8%, 4 lanes, 48 hours
[21] = 4.0 uM, exp. 5.2.2, initial infectious rate 1.5%, 4 lanes, 48 hours
[22] = 4.0 uM, exp. 5.2.3, initial infectious rate 1.1%, 12 lanes, 48 hours
[23] = 4.0 uM, exp. 5.2.4, initial infectious rate 1.1%, 6 lanes, 48 hours
[24] = 8.0 uM, exp. 5.2.1, initial infectious rate 1.8%, 4 lanes, 48 hours
[25] = 8.0 uM, exp. 5.2.2, initial infectious rate 1.5%, 4 lanes, 48 hours
[26] = 8.0 uM, exp. 5.2.3, initial infectious rate 1.1%, 12 lanes, 48 hours
[27] = 8.0 uM, exp. 5.2.4, initial infectious rate 1.1%, 6 lanes, 48 hours

arsenic trioxide
24 hr % cell death ([1]; 0.5 μM): 7.3 ± 1.2%
48 hr % cell death ([1]; 0.5 μM): 7.6 ± 0.6%
24 hr % cell death ([1]; 2.5 μM): 13.7 ± 1.6%
48 hr % cell death ([1]; 2.5 μM): 15.2 ± 2.3%
24 hr % cell death ([1]; 5.0 μM): 14.6 ± 2.1%
48 hr % cell death ([1]; 5.0 μM): 17.2 ± 1.9%
24 hr % cell death ([1]; 10 μM): 17.8 ± 1.8%
48 hr % cell death ([1]; 10 μM): 20.3 ± 2.6%
Probability unit (Y) ([2]; 0.031 uM, exp. 5.2.2): 4.1619
Infection rate (%) [2, 3]: 79.9%
Inhibition rate (%) [2, 3]: 20.1%
Probability unit (Y) ([2]; 0.063 uM, exp. 5.2.2): 4.3659
Infection rate (%) [2, 4]: 73.7%
Inhibition rate (%) [2, 4]: 26.3%
Probability unit (Y) ([2]; 0.125 uM, exp. 5.2.2): 4.5239
Infection rate (%) [2, 5]: 68.3%
Inhibition rate (%) [2, 5]: 31.7%
Probability unit (Y) ([2]; 0.25 uM, exp. 5.2.1): 5.1942
Infection rate (%) [2, 6]: 42.3%
Inhibition rate (%) [2, 6]: 57.7%
Probability unit (Y) ([2]; 0.25 uM, exp. 5.2.2): 4.8743
Infection rate (%) [2, 7]: 54.9%
Inhibition rate (%) [2, 7]: 45.1%
Probability unit (Y) ([2]; 0.5 uM, exp. 5.2.1): 5.6903
Infection rate (%) [2, 8]: 24.5%
Inhibition rate (%) [2, 8]: 75.5%
Probability unit (Y) ([2]; 0.5 uM, exp. 5.2.2): 5.1408
Infection rate (%) [2, 9]: 44.4%
Inhibition rate (%) [2, 9]: 55.6%
Probability unit (Y) ([2]; 0.5 uM, exp. 5.2.3): 5.6008
Infection rate (%) [2, 10]: 27.4%
Inhibition rate (%) [2, 10]: 72.6%
Probability unit (Y) ([2]; 0.5 uM, exp. 5.2.4): 5.6903
Infection rate (%) [2, 11]: 24.5%
Inhibition rate (%) [2, 11]: 75.5%
Probability unit (Y) ([2]; 1.0 uM, exp. 5.2.1): 5.8596
Infection rate (%) [2, 12]: 19.5%
Inhibition rate (%) [2, 12]: 80.5%
Probability unit (Y) ([2]; 1.0 uM, exp. 5.2.2): 5.9192
Infection rate (%) [2, 13]: 17.9%
Inhibition rate (%) [2, 13]: 82.1%
Probability unit (Y) ([2]; 1.0 uM, exp. 5.2.3): 5.1311
Infection rate (%) [2, 14]: 12.9%
Inhibition rate (%) [2, 14]: 87.1%
Probability unit (Y) ([2]; 1.0 uM, exp. 5.2.4): 6.0027
Infection rate (%) [2, 15]: 15.7%
Inhibition rate (%) [2, 15]: 84.3%
Probability unit (Y) ([2]; 2.0 uM, exp. 5.2.1): 6.0939
Infection rate (%) [2, 16]: 13.7%
Inhibition rate (%) [2, 16]: 86.3%
Probability unit (Y) ([2]; 2.0 uM, exp. 5.2.2): 6.1311
Infection rate (%) [2, 17]: 12.9%
Inhibition rate (%) [2, 17]: 87.1%
Probability unit (Y) ([2]; 2.0 uM, exp. 5.2.3): 6.3722
Infection rate (%) [2, 18]: 8.5%
Inhibition rate (%) [2, 18]: 91.5%
Probability unit (Y) ([2]; 2.0 uM, exp. 5.2.4): 6.3408
Infection rate (%) [2, 19]: 9.0%
Inhibition rate (%) [2, 19]: 91.0%
Probability unit (Y) ([2]; 4.0 uM, exp. 5.2.1): 6.3225
Infection rate (%) [2, 20]: 9.3%
Inhibition rate (%) [2, 20]: 90.7%
Probability unit (Y) ([2]; 4.0 uM, exp. 5.2.2): 6.2160
Infection rate (%) [2, 21]: 11.2%
Inhibition rate (%) [2, 21]: 88.8%
Probability unit (Y) ([2]; 4.0 uM, exp. 5.2.3): 6.7866
Infection rate (%) [2, 22]: 3.6%
Inhibition rate (%) [2, 22]: 96.3%
Probability unit (Y) ([2]; 4.0 uM, exp. 5.2.4): 6.7507
Infection rate (%) [2, 23]: 4.0%
Inhibition rate (%) [2, 23]: 96.0%
Probability unit (Y) ([2]; 8.0 uM, exp. 5.2.1): 6.4909
Infection rate (%) [2, 24]: 6.8%
Inhibition rate (%) [2, 24]: 93.2%
Probability unit (Y) ([2]; 8.0 uM, exp. 5.2.2): 6.6352
Infection rate (%) [2, 25]: 5.1%
Inhibition rate (%) [2, 25]: 94.9%
Probability unit (Y) ([2]; 8.0 uM, exp. 5.2.3): 7.0537
Infection rate (%) [2, 26]: 2.0%
Inhibition rate (%) [2, 26]: 98.0%
Probability unit (Y) ([2]; 8.0 uM, exp. 5.2.4): 7.0749
Infection rate (%) [2, 27]: 1.9%
Inhibition rate (%) [2, 27]: 98.1%
IC50 ([2]; exp. 5.2.1, initial infectious rate 1.8%, 48 hours, read-out: IC50): 0.1 µM
IC90 ([2]; exp. 5.2.1, initial infectious rate 1.8%, 48 hours, read-out: IC90): 3.68 µM
IC50 ([2]; exp. 5.2.1, 95% confidence limit 11.43˜34.2 ng/ml): 0.01978 µg/mL
IC90 ([2]; exp. 5.2.1, 95% confidence limit 420.84˜1259.53 ng/ml): 0.72805 µg/mL
IC50 ([2]; exp. 5.2.2, initial infectious rate 1.5%, 48 hours, read-out: IC50): 0.25 µM
IC90 ([2]; exp. 5.2.2, initial infectious rate 1.5%, 48 hours, read-out: IC90): 3.73 µM
IC50 ([2]; exp. 5.2.2, 95% confidence limit 28.00˜86.73 ng/ml): 0.04928 µg/mL
IC90 ([2]; exp. 5.2.2, 95% confidence limit 419.28˜1298.77 ng/ml): 0.73794 µg/mL
IC50 ([2]; exp. 5.2.3, initial infectious rate 1.1%, 12 lanes, 48 hours, read-out: IC50): 0.13 µM
IC90 ([2]; exp. 5.2.3, initial infectious rate 1.1%, 12 lanes, 48 hours, read-out: IC90): 0.96 µM
IC50 ([2]; exp. 5.2.3, 95% confidence limit 18.91˜34.9 ng/ml): 0.02572 µg/mL
IC90 ([2]; exp. 5.2.3, 95% confidence limit 139.65˜258.3 ng/ml): 0.18993 µg/mL
IC90 ([2]; exp. 5.2.4, initial infectious rate 1.1%, 6 lanes, 48 hours, read-out: IC90): 2.09 µM
IC50 ([2]; exp. 5.2.4, 95% confidence limit 40.32˜99.4 ng/ml): 0.06331 µg/mL
IC90 ([2]; exp. 5.2.4, 95% confidence limit printed 263.06˜258.30 ng/ml): 0.41348 µg/mL
